Reference: doi:10.1101/2025.04.09.647920v1, “TIR immune signaling is blocked by phosphorylation to maintain growth in plants and animals” (biorxiv, 2025)

Target: T1, RBA1 (Arabidopsis thaliana, UniProt F4HT77)
T1 construct: TIR-only protein, recombinant from insect cells
T1 sequence (F4HT77 1-363): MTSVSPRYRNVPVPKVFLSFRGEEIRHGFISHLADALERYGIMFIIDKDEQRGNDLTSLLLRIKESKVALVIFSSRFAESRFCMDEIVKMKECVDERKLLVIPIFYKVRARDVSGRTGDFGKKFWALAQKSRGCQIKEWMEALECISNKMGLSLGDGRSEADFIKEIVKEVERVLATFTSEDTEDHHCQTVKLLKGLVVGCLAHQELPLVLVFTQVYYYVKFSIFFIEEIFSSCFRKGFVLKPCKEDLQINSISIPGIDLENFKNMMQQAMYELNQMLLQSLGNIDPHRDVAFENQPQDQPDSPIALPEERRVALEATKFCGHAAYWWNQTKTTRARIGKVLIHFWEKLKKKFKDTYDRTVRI
Assay: LC-MS/MS NADase assay
Assay type: biochemical
Conditions: in vitro

## NC(=O)c1ccc[n+]([C@@H]2O[C@H](COP(=O)(O)OP(=O)(O)OC[C@H]3O[C@@H](n4cnc5c(N)ncnc54)[C@H](O)[C@@H]3O)[C@@H](O)[C@H]2O)c1 [NAD^+]
  LC-MS/MS NADase assay: Recombinant RBA1 protein purified from insect cells cleaved NAD^+ into nicotinamide (Nam)
